Assay in all cases: growth of human tumour cells (NCI), 48 h
The subject of experiment [1] is A549 NSCLC.
Experiment [2] deals with HCT-116 colon.
The test system of experiment [3] is MOLT-4 leukemia.
Experiment [4] deals with PC-3 prostate.
Experiment [5] deals with SF-268 CNS.
The subject of experiment [6] is SF-295 CNS.
Experiment [7] relates to SF-539 CNS.
Experiment [8] concerns SNB-75 CNS.
For experiment [9], the system named is SW-620 colon.
The subject of experiment [10] is EKVX NSCLC.

SMILES strings stand for the structures.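 Cells were grown in 96-well plates and exposed to each compound for 48 hours at five concentrations; endpoints were interpolated linearly between bracketing concentrations, or set to the highest concentration if not reached. Here, GI50 denotes the concentration required for 50% inhibition of growth. TGI denotes the concentration required for complete inhibition of growth.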

Turning to `CC(C)(O)Cn1c(=O)c(Oc2ccc(F)cc2F)cc2cnc(NC3CCOCC3)nc21`, the GI50 in experiment [1] was above 25 µM; in [2], above 25000 nM; in [3], above 25000 nM; in experiment [4] it was above 25000 nM; in [5] it was above 25000 nM; in experiment [6], above 25 µM. The GI50 in experiment [7] is above 25000 nM; in experiment [8] it was above 22.3 µM; in experiment [9], above 25000 nM. For the same compound, the TGI in experiment [1], in [2], in experiment [3], in experiment [4], in experiment [5] and in experiment [6] was above 25 µM in each case. Further, the TGI in experiment [7], in experiment [8] and in experiment [9] was above 25 µM in each case.
Turning to `CC(C)Oc1cc(OCC(=O)O)cc(C(=O)N(CCC(N)=O)C(=O)Nc2ccc(C(=O)O)cc2OC(C)C)c1`, the GI50 in experiment [1] was above 100 µM; in experiment [2], above 100000 nM; in experiment [3], above 100000 nM; in experiment [4] it was above 100000 nM; in [5], above 100000 nM; in [6], above 100 µM. The GI50 in experiment [7] is above 100000 nM; in experiment [8], above 100 µM; in [9], above 100000 nM. The TGI in experiment [1], in experiment [2], in experiment [3], in experiment [4], in experiment [5] and in [6] was above 100 µM in each case. Also, the TGI in experiment [7], in experiment [8] and in experiment [9] was above 100 µM in each case.
For the compound `O=C1CCCC1C(=O)Nc1ccc2ccccc2c1` (centres undefined), the TGI in experiment [1], in [10], in experiment [2], in [3], in [4] and in [5] was above 100 µM in each case. Also, the TGI in experiment [6], in experiment [8] and in experiment [9] was above 100 µM throughout.
As for `O=c1ccc2nc(-c3ccccc3)nn(-c3ccccc3)c-2c1`, the GI50 in experiment [1] was 9.26 µM; in experiment [2] it was 790 nM; in experiment [3] it was 546 nM; in experiment [4], 2140 nM; in experiment [5], 3480 nM; in [6], 13 µM. Also, the results for the GI50 in [7], in experiment [8] and in experiment [9] were 1920 nM, 4.83 µM and 1650 nM, respectively. Besides, the TGI was determined as 36.7 µM in [1]; 2.08 µM in [2]; 1.97 µM in [3]; 5.71 µM in experiment [4]; 13.5 µM in [5]; 32.1 µM in experiment [6]. Also, the TGI is 3.76 µM in experiment [7], 11.3 µM in experiment [8] and 3.53 µM in experiment [9].
For `CC[C@]1(O)C[C@@H]2CN(Cc3c([nH]c4ccccc34)[C@@](C(=O)OC)(c3cc4c(cc3OC)N(C)[C@H]3[C@@](O)(C(=O)OC)[C@H](OC(C)=O)[C@]5(CC)[C@@H]6C[C@@H]6CN6CC[C@]43[C@@H]65)C2)C1`, the GI50 in [1] was 0.234 µM; in [2], 35.1 nM; in [3], 48.4 nM; in experiment [4] it was 82.9 nM; in [5] it was 148 nM; in [6] it was 0.137 µM. Also, the GI50 was 36.3 nM in [7], 0.0393 µM in [8] and 70.1 nM in experiment [9]. Also, the TGI in experiment [1], in [2], in [3], in experiment [4], in experiment [5] and in experiment [6] was above 4.38 µM in each case. Further, the TGI in experiment [8] and in [9] was above 4.38 µM in each case.
In the case of `O=c1[nH]nc(-c2ccccc2)c(-c2ccccc2)c1-n1nc(-c2ccccc2)c2ccccc2c1=O`, the TGI in [1] was above 100 µM; in experiment [10], above 100 µM; in experiment [2], above 100 µM; in experiment [3], 88.7 µM; in experiment [5], above 100 µM; in experiment [6], above 100 µM. In addition, the TGI in [7], in experiment [8] and in experiment [9] was above 100 µM each time.
For `COc1ccccc1/C=C1\COc2ccc(O)c(O)c2C1=O`, the GI50 in experiment [1] is 2.95 µM; in [10] it was 3000 nM; in experiment [2], 1610 nM; in experiment [3] it was 1790 nM; in [4] it was 1430 nM; in [5] it was 2220 nM. Moreover, the GI50 in experiment [6] is 4.49 µM; in experiment [7] it was 1520 nM; in [9], 1480 nM. For the same compound, the TGI in experiment [1] is above 100 µM; in experiment [10], 46.1 µM; in [2] it was 3.99 µM; in experiment [3] it was 19.1 µM; in experiment [4], 11.3 µM; in experiment [5] it was 8.42 µM. Moreover, the TGI was above 100 µM in experiment [6], 3.35 µM in experiment [7] and 4.2 µM in [9].
For the compound `CCC12C=CCN3CC[C@]4(C(=C(C(=O)OC)[C@@H]1Nc1ncnc5c1ncn5C1OC(COC(C)=O)C(OC(C)=O)C1OC(C)=O)Nc1ccccc14)C32` (some centres undefined), the TGI stood at 13.2 µM in experiment [1]; 16.2 µM in experiment [10]; 5.55 µM in [2]; 25.3 µM in experiment [3]; 5.11 µM in [5]; 9.67 µM in experiment [6]. For the same compound, the values for the TGI in experiment [7], in experiment [8] and in [9] were 4.4 µM, 7.03 µM and 5.31 µM, respectively.
For `[N-]=[N+]=Nc1ccc(S(=O)(=O)Oc2cc(OS(=O)(=O)c3ccc(N=[N+]=[N-])cc3)cc(OS(=O)(=O)c3ccc(N=[N+]=[N-])cc3)c2)cc1`, the TGI in experiment [1], in experiment [10], in experiment [2], in [3], in experiment [5] and in [6] was above 100 µM in each case. The results for the TGI in experiment [7], in experiment [8] and in experiment [9] were above 100 µM, above 10 µM and above 10 µM, respectively.
As for `O=C(Cn1ccnc1[N+](=O)[O-])NCCO`, the TGI in experiment [1], in [10], in [2], in [4], in experiment [5] and in [6] was above 100 µM throughout. For the same compound, the TGI in experiment [7], in experiment [8] and in experiment [9] was above 100 µM throughout.
